Source: patent publication US20100009970A1, “COMPOSITIONS AND METHODS FOR TREATMENT OF VIRAL DISEASES” (Combinatorx (Singapore) Pte. Ltd., priority 2008, published 2010)
Read-outs that look alike come from different tables or passages of the source.

How the values were obtained:
in vitro = conditions: human
[1] = system: Huh7 cells expressing a subgenomic RNA replicon of Con1 (genotype 1b) sequence origin; assay: microbe, parasite or virus in culture; conditions: Hepatitis C virus; for IC90: Huh-7
[2] = Huh-7, read-out: IC50 (uM) [SG]
[3] = Huh-7, read-out: Max Effect@CC30 (inhibition)
[4] = GETYPE1B, Huh-7, 72 h, read-out: Max Effect @CC30 (inhibition)

## CC(=O)N(C)c1ccc2c(c1)[C@@H](N(C)C)CC[C@H]2c1ccc(Cl)c(Cl)c1
In vitro; CC50 (uM) [SG]
  CC50: 14.6 µM
[1]; [2]
  IC50: 3.79 µM
[1]; [3]
  Emax: 91.7%

## CN[C@@H]1CC[C@H](c2ccc(Cl)c(Cl)c2)c2ccccc21 [1R,4R Sertraline Enantiomer, (1R,4R)-4-(3,4-dichlorophenyl)-N-methyl-1,2,3,4-tetrahydronaphthalen-1-amine]
In vitro; CC50 (uM)
  CC50 at 72 h: 14.3 µM
In vitro; CC50 (uM) [SG]
  CC50: 14.6 ± 0.37 µM
[1]; [4]
  Emax: 42%
[1]; [3]
  Emax: 58.7 ± 23.6%

## CN(CCO)[C@H]1CC[C@@H](c2ccc(Cl)c(Cl)c2)c2ccc(C[S+](C)[O-])cc21 (stereo partly drawn) [2-(((1S,4S)-4-(3,4-dichlorophenyl)-7-(methylsulfinylmethyl)-1,2,3,4-tetrahydronaphthalen-1-yl)(methyl)amino)ethanol]
In vitro; CC50 (uM) [SG]
  CC50: > 50 µM
[1]; [2]
  IC50: 24.2 µM

## O=C1CC[C@@H](c2ccc(Cl)c(Cl)c2)c2ccccc21 [4S-Sertraline Ketone, (S)-4-(3,4-dichlorophenyl)-3,4-dihydronaphthalen-1(2H)-one]
In vitro; CC50 (uM) [SG]
  CC50: > 50 µM
[1]; [2]
  IC50: 32.6 µM
[1]; [3]
  Emax: 77%

## CN[C@H]1CC[C@@H](c2ccc(Cl)c(Cl)c2)c2ccc(CS(=O)(=O)c3ccccc3)cc21 [(1S,4S)-4-(3,4-dichlorophenyl)-N-methyl-7-(phenylsulfonylmethyl)-1,2,3,4-tetrahydronaphthalen-1-amine]
In vitro; CC50 (uM) [SG]
  CC50: 6.7 µM
[1]; [2]
  IC50: 6.24 µM

## N[C@H]1CC[C@@H](c2ccc(Cl)c(Cl)c2)c2ccccc21 [(1S,4S)-Desmethyl Sertraline, (1S,4S)-4-(3,4-dichlorophenyl)-1,2,3,4-tetrahydronaphthalen-1-amine]
In vitro; CC50 (uM)
  CC50: 8.98 ± 0.1 µM
In vitro; CC50 (uM) [SG]
  CC50: 8.98 ± 0.1 µM
[1]; [4]
  Emax: 0%
[1]; Huh-7, 72 h
  IC50: 7.5 ± 0.4 µM
[1]; [2]
  IC50: 7.5 µM
[1]; [3]
  Emax: 0%

## CN(C)[C@H]1CC[C@@H](c2ccc(Cl)c(Cl)c2)c2ccc(C(=O)NCC3CC3)cc21 [(5S,8S)—N-(cyclopropylmethyl)-5-(3,4-dichlorophenyl)-8-(dimethylamino)-5,6,7,8-tetrahydronaphthalene-2-carboxamide]
In vitro; CC50 (uM) [SG]
  CC50: 19.4 µM
[1]
  IC90: 12.2 µM
[1]; [2]
  IC50: 5.61 µM

## CN(C)[C@H]1CC[C@@H](c2ccc(Cl)c(Cl)c2)c2ccc(C(=O)NC3CCC3)cc21 [(5S,8S)—N-cyclobutyl-5-(3,4-dichlorophenyl)-8-(dimethylamino)-5,6,7,8-tetrahydronaphthalene-2-carboxamide]
In vitro; CC50 (uM) [SG]
  CC50: 13.4 µM
[1]; [2]
  IC50: 5.78 µM

## CN(C)[C@H]1CC[C@@H](c2ccc(Cl)c(Cl)c2)c2ccc(C(=O)NC3CC3)cc21 [(5S,8S)—N-cyclopropyl-5-(3,4-dichlorophenyl)-8-(dimethylamino)-5,6,7,8-tetrahydronaphthalene-2-carboxamide]
In vitro; CC50 (uM) [SG]
  CC50: 25.4 µM
[1]; [2]
  IC50: 7.3 µM

## CN(C(=O)c1ccc2c(c1)[C@@H](N(C)C)CC[C@H]2c1ccc(Cl)c(Cl)c1)C1CC1 [(5S,8S)—N-cyclopropyl-5-(3,4-dichlorophenyl)-8-(dimethylamino)-N-methyl-5,6,7,8-tetrahydronaphthalene-2-carboxamide]
In vitro; CC50 (uM) [SG]
  CC50: 26.3 µM
[1]; [2]
  IC50: 13 µM

## CN[C@H]1CC[C@@H](c2ccc(Cl)c(Cl)c2)c2ccc(C(=O)NC3CC3)cc21 [(5S,8S)—N-cyclopropyl-5-(3,4-dichlorophenyl)-8-(methylamino)-5,6,7,8-tetrahydronaphthalene-2-carboxamide]
In vitro; CC50 (uM) [SG]
  CC50: 8.87 µM
[1]; [2]
  IC50: 2.75 µM
[1]; [3]
  Emax: 88%

## CC(C)C1=CC[C@@H](c2ccc(Cl)c(Cl)c2)c2ccc(C(N)=O)cc21 [(S)-5-(3,4-dichlorophenyl)-8-isopropyl-5,6-dihydronaphthalene-2-carboxamide]
In vitro; CC50 (uM) [SG]
  CC50: > 50 µM
[1]; [2]
  IC50: 21.5 µM

## OC1CC[C@@H](c2ccc(Cl)c(Cl)c2)c2ccccc21 (stereo partly drawn) [Alcohol Sertraline-P1, (S)-4-(3,4-dichlorophenyl)-1,2,3,4-tetrahydronaphthalen-1-ol]
In vitro; CC50 (uM) [SG]
  CC50: > 50 µM
[1]; [2]
  IC50: 24.5 µM
[1]; [3]
  Emax: 89.2%

## CSc1ccc(Oc2ccc(S(N)(=O)=O)cc2CNCCO)cc1C [Compound 1, 3-((2-hydroxyethylamino)methyl)-4-(3-methyl-4-(methylthio)phenoxy)benzenesulfonamide]
In vitro; CC50 (uM) [SG]
  CC50: > 50 µM
[1]
  IC90: 15 µM
[1]; [2]
  IC50: 4.31 µM

## CSc1ccc(Oc2ccc(S(N)(=O)=O)cc2CN(C)CCO)cc1C [Compound 2, 3-(((2-hydroxyethyl)(methyl)amino)methyl)-4-(3-methyl-4-(methylthio)phenoxy)benzenesulfonamide]
In vitro; CC50 (uM) [SG]
  CC50: > 50 µM
[1]
  IC90: 20.1 µM
[1]; [2]
  IC50: 5.58 µM

## CNS(=O)(=O)c1ccc(Oc2ccc(SC)c(C)c2)c(CN(C)C)c1 [Compound 6, 3-((dimethylamino)methyl)-N-methyl-4-(3-methyl-4-(methylthio)phenoxy)benzenesulfonamide]
In vitro; CC50 (uM) [SG]
  CC50: 45.3 µM
[1]
  IC90: 14.8 µM
[1]; [2]
  IC50: 5.8 µM
[1]; [3]
  Emax: 93.2%

## CSc1ccc(Oc2ccc(C#N)cc2CN(C)C)cc1C [Compound 7, 3-((dimethylamino)methyl)-4-(3-methyl-4-(methylthio)phenoxy)benzonitrile]
In vitro; CC50 (uM) [SG]
  CC50: > 50 µM
[1]
  IC90: 11.5 µM
[1]; [2]
  IC50: 6.4 µM
[1]; [3]
  Emax: 96.7%

## CSc1ccc(Oc2ccccc2CN(C)C)cc1C [Compound 8, N,N-dimethyl-1-(2-(3-methyl-4-(methylthio)phenoxy)phenyl)methanamine]
In vitro; CC50 (uM) [SG]
  CC50: 36 µM
[1]; [2]
  IC50: 12.2 µM
[1]; [3]
  Emax: 52.3%

## CSc1ccc(Oc2ccc(C(N)=O)cc2CN(C)C)cc1C [Compound 10, 3-((dimethylamino)methyl)-4-(3-methyl-4-(methylthio)phenoxy)benzamide]
In vitro; CC50 (uM) [SG]
  CC50: > 50 µM
[1]; [2]
  IC50: 26.9 µM
[1]; [3]
  Emax: 80.7%

## CCCCNS(=O)(=O)c1ccc(Oc2ccc(SC)c(C)c2)c(CN(C)C)c1 [Compound 12, N-butyl-3-((dimethylamino)methyl)-4-(3-methyl-4-(methylthio)phenoxy)benzenesulfonamide]
In vitro; CC50 (uM) [SG]
  CC50: 18.4 µM
[1]; [2]
  IC50: 13.4 µM

## CSc1ccc(Oc2ccc(S(=O)(=O)NC3CC3)cc2CN(C)C)cc1C [Compound 13, N-cyclopropyl-3-((dimethylamino)methyl)-4-(3-methyl-4-(methylthio)phenoxy)benzenesulfonamide]
In vitro; CC50 (uM) [SG]
  CC50: 41.8 µM
[1]; [2]
  IC50: 25.5 µM

## CSc1ccc(Oc2ccc(S(=O)(=O)NCc3ccccc3)cc2CN(C)C)cc1C [Compound 14, N-benzyl-3-((dimethylamino)methyl)-4-(3-methyl-4-(methylthio)phenoxy)benzenesulfonamide]
In vitro; CC50 (uM) [SG]
  CC50: 16.9 µM
[1]; [2]
  IC50: 11.4 µM
[1]; [3]
  Emax: 59%

## CSc1ccc(Oc2ccc(N(C)C)cc2CN(C)C)cc1C [Compound 15, 3-((dimethylamino)methyl)-N,N-dimethyl-4-(3-methyl-4-(methylthio)phenoxy)aniline]
In vitro; CC50 (uM) [SG]
  CC50: 38.7 µM
[1]; [2]
  IC50: 23 µM

## CSc1ccc(Oc2ccc(CNS(C)(=O)=O)cc2CN(C)C)cc1C [Compound 17, N-(3-((dimethylamino)methyl)-4-(3-methyl-4-(methylthio)phenoxy)benzyl)methanesulfonamide]
In vitro; CC50 (uM) [SG]
  CC50: > 50 µM
[1]; [2]
  IC50: 22.7 µM

## CNc1ccc(Oc2ccc(SC)c(C)c2)c(CN(C)C)c1 [Compound 25, 3-((dimethylamino)methyl)-N-methyl-4-(3-methyl-4-(methylthio)phenoxy)aniline]
In vitro; CC50 (uM) [SG]
  CC50: 46.9 µM
[1]; [2]
  IC50: 20 µM

## CNCc1ccccc1Oc1ccc(SC)c(C)c1 [Compound 30, N-methyl-1-(2-(3-methyl-4-(methylthio)phenoxy)phenyl)methanamine]
In vitro; CC50 (uM) [SG]
  CC50: 26.4 µM
[1]; [2]
  IC50: 13.2 µM
[1]; [3]
  Emax: 26%

## CNCc1cc(Br)ccc1Oc1ccc(SC)c(C)c1 [Compound 31, (5-bromo-2-(3-methyl-4-(methylthio)phenoxy)phenyl)-N-methylmethanamine]
In vitro; CC50 (uM) [SG]
  CC50: 13.5 µM
[1]; [2]
  IC50: 7.51 µM
[1]; [3]
  Emax: 18%

## CNCc1ccccc1Oc1ccc(Br)cc1 [Compound 32]
In vitro; CC50 (uM) [SG]
  CC50: > 50 µM
[1]; [2]
  IC50: 31.2 µM
[1]; [3]
  Emax: 30%

## CNCc1ccccc1Oc1ccc(SC)cc1 [Compound 33, N-methyl(2-(4-(methylthio)phenoxy)phenyl)methanamine]
In vitro; CC50 (uM) [SG]
  CC50: > 50 µM
[1]; [2]
  IC50: 30.2 µM
[1]; [3]
  Emax: 72.3%

## CNCc1cc(Br)ccc1Oc1ccc(SC)cc1 [Compound 34, (5-bromo-2-(4-(methylthio)phenoxy)phenyl)-N-methylmethanamine]
In vitro; CC50 (uM) [SG]
  CC50: 35.5 µM
[1]; [2]
  IC50: 24.6 µM
[1]; [3]
  Emax: 72.6%

## CNCc1cc(Br)ccc1Oc1cccc(OC)c1 [Compound 37, (5-bromo-2-(3-methoxyphenoxy)phenyl)-N-methylmethanamine]
In vitro; CC50 (uM) [SG]
  CC50: 46.9 µM
[1]; [2]
  IC50: 27.7 µM
[1]; [3]
  Emax: 12.4%

## CNCc1ccccc1Oc1ccc(C(F)(F)F)cc1 [Compound 39, N-methyl-1-(2-(4-(trifluoromethyl)phenoxy)phenyl)methanamine]
In vitro; CC50 (uM) [SG]
  CC50: > 50 µM
[1]
  IC90: 50 µM
[1]; [2]
  IC50: 37.5 µM
[1]; [3]
  Emax: 91.7%

## CSc1ccc(Oc2ccc(Br)cc2CN(C)C)cc1 [Compound 41, 1-(5-bromo-2-(4-(methylthio)phenoxy)phenyl)-N,N-dimethylmethanamine]
In vitro; CC50 (uM) [SG]
  CC50: > 50 µM
[1]
  IC90: 28.8 µM
[1]; [2]
  IC50: 25.8 µM
[1]; [3]
  Emax: 94.7%

## COc1ccc(Oc2ccc(Br)cc2CN(C)C)cc1 [Compound 42, (5-bromo-2-(4-methoxyphenoxy)phenyl)-N,N-dimethylmethanamine]
In vitro; CC50 (uM) [SG]
  CC50: > 50 µM
[1]; [2]
  IC50: 30.8 µM
[1]; [3]
  Emax: 51.7%

## CNCc1cc(S(N)(=O)=O)ccc1Oc1ccc(SC)cc1 [Compound 43, 3-((methylamino)methyl)-4-(4-(methylthio)phenoxy)benzenesulfonamide]
In vitro; CC50 (uM) [SG]
  CC50: > 50 µM
[1]; [2]
  IC50: 32.7 µM
[1]; [3]
  Emax: 73.7%

## CNC(=O)c1cc(S(N)(=O)=O)ccc1Oc1ccc(SC)c(C)c1 [Compound 45, N-methyl-2-(3-methyl-4-(methylthio)phenoxy)-5-sulfamoylbenzamide]
In vitro; CC50 (uM)
  CC50: > 50 µM
[1]; [3]
  Emax: 10.3%
